Data reported in patent US20100190778A1, “3,4-DIHYDROBENZO[1,2,3]THIADIAZINE-1,1-DIOXIDE DERIVATIVES, PROCESS FOR PREPARATION THEREOF, MEDICAMENTS CONTAINING SAID DERIVATIVES AND THEIR USE” (EGIS GYOGYSZERGYAR NYILVANOSAN MUKODO RESZVENTARSASAG, priority 2006, published 2010).

System: male Sprague-Dawley rats
Assay: elevated maze test in the rat (anxiolytic effect)
Type: in vivo
Settings: per os, 60-min pretreatment, 5-min measurement, MED regarding time spent in the open arms and number of entries into the open arms
Procedure: Pharmacological activity of the compounds of the general Formula (I) has been evaluated in elevated maze test in the rat.
The tests were carried out according to the method of S. Fellow and coworkers (J. Neurosci. Methods. 1985, 14, 149-167). During the test, a wooden-floor cross elevated by 50 cm from the ground was used. The length and the width of the arms of the cross were 100 and 15 cm, respectively. Two opposite arms of the cross are fitted at the ends and both sides with black plexiglass wall of 40 cm height (closed arms). The central section of the cross measuring 15 by 15 cm is open. The other two opposite arms of the cross are not provided with walls (open arms).
The tests were carried out in male Sprague-Dawley rats weighing 200 to 220 g. After the 60-min pretreatment time (per os treatment), animals were placed in the center of the maze. During the 5-min measurement time, four variables were recorded: the time spent in the open arms; the time spent in the closed arms; the number of entries into the open arms; the number of entries into the closed arms.
Animals normally avoid the open and light parts of the maze, thereby spending little time therein only. The anxiolytic effect of the compounds of the general Formula (I) is indicated by the increase in the time spent (in seconds) in the open arms and/or by the increase in the number of the entries into the open compartments of the maze. The minimum effective dose (MED) was determined for each tested compounds regarding the time spent in the open arms and the number of entries into the open arms. During the test, the known anxiolytic compound I-methyl-5-phenyl-7-chloro-1,3-dihydro-2H-1,4-benzodiazepin-2-one (INN: diazepam) of the Formula (IV)
was used. Treatment of the animals was carried out orally with the doses 0.1, 0.3, 1.0, 3.0 for diazepam and 0.01, 0.1, 1.0 mg/kg for the compounds of the general Formula (I).

Point of comparison: `CC1NN(C)S(=O)(=O)c2c1ccc(Cl)c2Cl` (stereo not shown) [Example 16, 7,8-Dichloro-2,4-dimethyl-3,4-dihydrobenzo[1,2,3]thiadiazine-1,1-dioxide], “MED (minimum effective dose), anxiolytic effect in elevated maze test” value 0.01 mg/kg p.o.. Against it:
- CC1NNS(=O)(=O)c2c1ccc(Cl)c2Cl (stereo not shown) [Example 3, 7,8-Dichloro-4-methyl-3,4-dihydrobenzo[1,2,3]thiadiazine-1,1-dioxide] — the same, 0.01 mg/kg p.o.
- CN1C(=O)CN=C(c2ccccc2)c2cc(Cl)ccc21 [Diazepam, I-methyl-5-phenyl-7-chloro-1,3-dihydro-2H-1,4-benzodiazepin-2-one, reference compound] — higher, 1.00 mg/kg p.o.
- CN1NCc2ccc(Cl)c(Cl)c2S1(=O)=O [Example 20, 7,8-Dichloro-2-methyl-3,4-dihydrobenzo[1,2,3]thiadiazine-1,1-dioxide] — the same, 0.01 mg/kg p.o.
- CC1NNS(=O)(=O)c2cc(Cl)ccc21 (stereo not shown) [Example 1, 7-chloro-4-methyl-3,4-dihydrobenzo[1,2,3]thiadiazine-1,1-dioxide] — higher, 0.3 mg/kg p.o.

System: not given
Assay: not given
Settings: not given

First: CCC1NN(C)S(=O)(=O)c2c1ccc(Cl)c2Cl (stereo not shown) [Example 17, 7,8-Dichloro-4-ethyl-2-methyl-3,4-dihydrobenzo[1,2,3]thiadiazine-1,1-dioxide]
Second: CCC1NN(CC)S(=O)(=O)c2c1ccc(Cl)c2Cl (stereo not shown) [Example 22, 2,4-Diethyl-7,8-dichloro-3,4-dihydrobenzo[1,2,3]thiadiazine-1,1-dioxide]
The melting point of the first is higher: 139 to 141 °C for the first, 118 to 120 °C for the second.

First: CCN1Cc2ccccc2S(=O)(=O)N1 [Example 33, 3-Ethyl-3,4-dihydrobenzo[1,2,3]thiadiazine-1,1-dioxide]
Second: CN1Cc2ccccc2S(=O)(=O)N1 [Example 32, 3-Methyl-3,4-dihydrobenzo[1,2,3]thiadiazine-1,1-dioxide]
The melting point of the first is lower: 146 to 147 °C for the first, 176 to 178 °C for the second.

First: Cc1cc2c(c(Cl)c1Cl)S(=O)(=O)NNC2C (stereo not shown) [Example 6, 7,8-Dichloro-4,6-dimethyl-3,4-dihydrobenzo[1,2,3]thiadiazine-1,1-dioxide]
Second: Cc1cc2c(c(Cl)c1Cl)S(=O)(=O)N(C)NC2C (stereo not shown) [Example 25, 7,8-Dichloro-2,4,6-trimethyl-3,4-dihydrobenzo[1,2,3]thiadiazine-1,1-dioxide]
The melting point of the first is higher: 253 to 254 °C for the first, 141 to 142 °C for the second.

Compared with `COc1ccc2c(c1OC)S(=O)(=O)NNC2C` (stereo not shown) [Example 10, 7,8-Dimethoxy-4-methyl-3,4-dihydrobenzo[1,2,3]thiadiazine-1,1-dioxide], `COc1ccc2c(c1Cl)S(=O)(=O)NNC2C` (stereo not shown) [Example 9, 8-chloro-4-methyl-7-methoxy-3,4-dihydrobenzo[1,2,3]thiadiazine-1,1-dioxide] is higher in melting point: 211 to 213 °C for the first, 231 to 233 °C for the second.

First: CCCN1NS(=O)(=O)c2c(ccc(Cl)c2Cl)C1C (stereo not shown) [Example 28, 7,8-Dichloro-4-methyl-3-propyl-3,4-dihydrobenzo[1,2,3]thiadiazine-1,1-dioxide]
Second: CCN1NS(=O)(=O)c2c(ccc(Cl)c2Cl)C1C (stereo not shown) [Example 27, 7,8-Dichloro-3-ethyl-4-methyl-3,4-dihydrobenzo[1,2,3]thiadiazine-1,1-dioxide]
The melting point of the first is lower: 164 to 165 °C for the first, 172 to 174 °C for the second.

Compared with `COc1ccc2c(c1)CN(C)N(C)S2(=O)=O` [Example 39, 2,3-Dimethyl-6-methoxy-3,4-dihydrobenzo[1,2,3]thiadiazine-1,1-dioxide], `CCN1Cc2cc(OC)ccc2S(=O)(=O)N1C` [Example 40, 3-Ethyl-2-methyl-6-methoxy-3,4-dihydrobenzo[1,2,3]thiadiazine-1,1-dioxide] is lower in melting point: 142 to 143 °C for the first, 123 to 125 °C for the second.

First: CC1NNS(=O)(=O)c2c1ccc(Cl)c2Cl (stereo not shown) [Example 3, 7,8-Dichloro-4-methyl-3,4-dihydrobenzo[1,2,3]thiadiazine-1,1-dioxide]
Second: CCC1NNS(=O)(=O)c2c1ccc(Cl)c2Cl (stereo not shown) [Example 4, 7,8-Dichloro-4-ethyl-3,4-dihydrobenzo[1,2,3]thiadiazine-1,1-dioxide]
The melting point of the first is higher: 261 to 263 °C for the first, 222 to 224 °C for the second.

First: COc1ccc2c(c1Cl)S(=O)(=O)N(C)NC2C (stereo not shown) [Example 19, 2,4-Dimethyl-8-chloro-7-methoxy-3,4-dihydrobenzo[1,2,3]thiadiazine-1,1-dioxide]
Second: CC1NN(C)S(=O)(=O)c2c1ccc(Cl)c2Cl (stereo not shown) [Example 16, 7,8-Dichloro-2,4-dimethyl-3,4-dihydrobenzo[1,2,3]thiadiazine-1,1-dioxide]
The melting point of the first is higher: 141 to 143 °C for the first, 134 to 135 °C for the second.

Compared with `O=S1(=O)NNCc2ccccc21` [Example 14, 3,4-Dihydrobenzo[1,2,3]thiadiazine-1,1-dioxide], `COc1ccc2c(c1)CNNS2(=O)=O` [Example 13, 6-Methoxy-3,4-dihydrobenzo[1,2,3]thiadiazine-1,1-dioxide] is higher in melting point: 134 to 136 °C for the first, 181 to 182 °C for the second.

First: COc1cccc2c1S(=O)(=O)NNC2C (stereo not shown) [Example 11, 4-Methyl-8-methoxy-3,4-dihydrobenzo[1,2,3]thiadiazine-1,1-dioxide]
Second: CC1NNS(=O)(=O)c2c(Cl)cccc21 (stereo not shown) [Example 7, 8-chloro-4-methyl-3,4-dihydrobenzo[1,2,3]thiadiazine-1,1-dioxide]
The melting point of the first is higher: 231 to 233 °C for the first, 202 to 203 °C for the second.

First: CC1c2ccc(Cl)c(Cl)c2S(=O)(=O)NN1C (stereo not shown) [Example 26, 7,8-Dichloro-3,4-dimethyl-3,4-dihydrobenzo[1,2,3]thiadiazine-1,1-dioxide]
Second: CC1c2ccc(Cl)c(Cl)c2S(=O)(=O)N(C)N1C (stereo not shown) [Example 43, 7,8-Dichloro-2,3,4-trimethyl-3,4-dihydrobenzo[1,2,3]thiadiazine-1,1-dioxide]
The melting point of the first is higher: 194 to 195 °C for the first, 135 to 136 °C for the second.

First: CCN1NC(C)c2ccc(Cl)c(Cl)c2S1(=O)=O (stereo not shown) [Example 21, 7,8-Dichloro-2-ethyl-4-methyl-3,4-dihydrobenzo[1,2,3]thiadiazine-1,1-dioxide]
Second: CCN1NC(C)c2cccc(Cl)c2S1(=O)=O (stereo not shown) [Example 24, 2-Ethyl-8-chloro-4-methyl-3,4-dihydrobenzo[1,2,3]thiadiazine-1,1-dioxide]
The melting point of the first is higher: 135 to 136 °C for the first, 79 to 80 °C for the second.

First: CC1NNS(=O)(=O)c2ccccc21 (stereo not shown) [Example 8, 4-Methyl-3,4-dihydrobenzo[1,2,3]thiadiazine-1,1-dioxide]
Second: CC1NNS(=O)(=O)c2cc(Cl)ccc21 (stereo not shown) [Example 1, 7-chloro-4-methyl-3,4-dihydrobenzo[1,2,3]thiadiazine-1,1-dioxide]
The melting point of the first is lower: 150 to 152 °C for the first, 155 to 156 °C for the second.

First: CCC1c2ccc(Cl)cc2S(=O)(=O)NN1CC (stereo not shown) [Example 29, 3,4-Diethyl-7-chloro-3,4-dihydrobenzo[1,2,3]thiadiazine-1,1-dioxide]
Second: CCC1c2ccc(Cl)cc2S(=O)(=O)NN1C(C)C (stereo not shown) [Example 30, 4-Ethyl-3-isopropyl-7-chloro-3,4-dihydrobenzo[1,2,3]thia diazine-1,1-dioxide]
The melting point of the first is higher: 109 to 111 °C for the first, 99 to 101 °C for the second.

First: Cc1cc(Cl)c(Cl)c2c1C(C)NN(C)S2(=O)=O (stereo not shown) [Example 18, 7,8-Dichloro-2,4,5-trimethyl-3,4-dihydrobenzo[1,2,3]thiadiazine-1,1-dioxide]
Second: Cc1cc(Cl)c(Cl)c2c1C(C)N(C)NS2(=O)=O (stereo not shown) [Example 31, 7,8-Dichloro-3,4,5-trimethyl-3,4-dihydrobenzo[1,2,3]thiadiazine-1,1-dioxide]
The melting point of the first is lower: 101 to 102 °C for the first, 236 to 238 °C for the second.

First: CCN1Cc2cc(OC)ccc2S(=O)(=O)N1 [Example 35, 3-Ethyl-6-methoxy-3,4-dihydrobenzo[1,2,3]thiadiazine-1,1-dioxide]
Second: COc1ccc2c(c1)CN(C)NS2(=O)=O [Example 34, 3-Methyl-6-methoxy-3,4-dihydrobenzo[1,2,3]thiadiazine-1,1-dioxide]
The melting point of the first is lower: 180 to 181 °C for the first, 186 to 187 °C for the second.

First: CN1NCc2ccc(Cl)c(Cl)c2S1(=O)=O [Example 20, 7,8-Dichloro-2-methyl-3,4-dihydrobenzo[1,2,3]thiadiazine-1,1-dioxide]
Second: CN1Cc2ccc(Cl)c(Cl)c2S(=O)(=O)N1 [Example 36, 7,8-Dichloro-3-methyl-3,4-dihydrobenzo[1,2,3]thiadiazine-1,1-dioxide]
The melting point of the first is lower: 124 to 125 °C for the first, 189 to 190 °C for the second.

First: CN1Cc2ccccc2S(=O)(=O)N1C [Example 41, 2,3-Dimethyl-3,4-dihydrobenzo[1,2,3]thiadiazine-1,1-dioxide]
Second: CCN1Cc2ccccc2S(=O)(=O)N1C [Example 42, 3-Ethyl-2-methyl-3,4-dihydrobenzo[1,2,3]thiadiazine-1,1-dioxide]
The melting point of the first is higher: 143 to 145 °C for the first, 140 to 142 °C for the second.

First: CC1NN(C)S(=O)(=O)c2c(Cl)cccc21 (stereo not shown) [Example 23, 2,4-Dimethyl-8-chloro-3,4-dihydrobenzo[1,2,3]thiadiazine-1,1-dioxide]
Second: CN1Cc2ccc(Cl)cc2S(=O)(=O)N1 [Example 37, 7-chloro-3-methyl-3,4-dihydrobenzo[1,2,3]thiadiazine-1,1-dioxide]
The melting point of the first is lower: 128 to 130 °C for the first, 188 to 189 °C for the second.

First: CCC1NNS(=O)(=O)c2cc(Cl)ccc21 (stereo not shown) [Example 2, 4-Ethyl-7-chloro-3,4-dihydrobenzo[1,2,3]thiadiazine-1,1-dioxide]
Second: COc1ccc2c(c1Cl)S(=O)(=O)NNC2 [Example 15, 8-chloro-7-methoxy-3,4-dihydrobenzo[1,2,3]thiadiazine-1,1-dioxide]
The melting point of the first is lower: 128 to 130 °C for the first, 209 to 210 °C for the second.

With `Cc1cc(Cl)c(Cl)c2c1C(C)N(C(C)C)NS2(=O)=O` (stereo not shown) [Example 38, 7,8-Dichloro-4,5-dimethyl-3-isopropyl-3,4-dihydrobenzo[1,2,3]thiadiazine-1,1-dioxide] the melting point was 167 to 168 °C.
